Molecules are shown by their SMILES. pIC50: −log10 of the molar value. Bounds are passed on as bounds.

In the first assay the target is T1, FAAH (Rattus norvegicus, UniProt P97612).
T1 construct: For the assay of FAAH activity in rat brain membrane (RBM) homogenates; tissue Charles River (animals); host or cells: rat whole brain, membrane fraction
T1 sequence (P97612 1-579): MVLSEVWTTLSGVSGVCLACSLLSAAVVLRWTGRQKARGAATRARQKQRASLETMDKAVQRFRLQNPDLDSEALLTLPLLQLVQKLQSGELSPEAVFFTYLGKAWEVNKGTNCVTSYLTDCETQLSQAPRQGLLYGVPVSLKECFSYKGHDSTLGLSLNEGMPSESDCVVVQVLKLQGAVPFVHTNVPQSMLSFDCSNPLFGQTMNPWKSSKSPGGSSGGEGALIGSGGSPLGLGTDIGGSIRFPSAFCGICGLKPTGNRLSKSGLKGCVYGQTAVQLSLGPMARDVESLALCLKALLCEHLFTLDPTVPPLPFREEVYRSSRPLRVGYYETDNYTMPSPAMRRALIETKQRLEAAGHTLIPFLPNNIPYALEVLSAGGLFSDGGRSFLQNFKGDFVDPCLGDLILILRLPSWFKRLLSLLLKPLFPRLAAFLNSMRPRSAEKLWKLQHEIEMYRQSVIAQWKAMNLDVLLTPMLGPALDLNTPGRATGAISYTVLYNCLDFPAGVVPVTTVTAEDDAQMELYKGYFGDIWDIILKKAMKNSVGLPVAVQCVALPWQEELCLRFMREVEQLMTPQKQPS
Put plainly: FAAH inhibition, rat brain membrane homogenate assay. It is filed as biochemical.
Details: not given
The method in brief:
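Membranes from female CD rat brain (Tris pH 7.4/EDTA/MgCl2 resuspension), 7 μg protein, incubated 10 min at 37 °C with [3H]anandamide plus […] unlabelled AEA, 1 mg/mL fatty acid-free BSA, Tris-HCl pH 6.5, 1 mM EDTA, 1% DMSO. [3H]ethanolamine separated by chloroform/methanol extraction or charcoal filtration, scintillation-counted; IC50 derived.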
Molecule `COc1cc(NC(=O)C(=O)c2c(C)n(Cc3ncc(F)cc3F)c3ccc(C)cc23)ccn1` [Compound 88, 2-(1-((3,5-difluoropyridin-2-yl)methyl)-2,5-dimethyl-1H-indol-3-yl)-N-(2-methoxypyridin-4-yl)-2-oxoacetamide] showed a pIC50 of over 7.00.

Still in this assay, the particulars now being: rat brain homogenate; average activity; read-out: Rat Brain Extract FAAH IC50.
For `COc1cnc2c(c1)c(C(=O)C(=O)Nc1ccnc(OC)c1)c(C)n2Cc1ccc(Cl)cc1` [Compound 38, 2-(1-(4-chlorobenzyl)-5-methoxy-2-methyl-1H-pyrrolo[2,3-b]pyridin-3-yl)-N-(2-methoxypyridin-4-yl)-2-oxoacetamide], the pIC50 is over 7.00. The same measure, in the same setting: as for `COc1cc(NC(=O)C(=O)c2c(C)n(Cc3ccc(Cl)cn3)c3ccc(N)cc23)ccn1` [Compound 65, 2-(5-amino-1-((5-chloropyridin-2-yl)methyl)-2-methyl-1H-indol-3-yl)-N-(2-methoxypyridin-4-yl)-2-oxoacetamide], the figure is over 7.00; as for `COc1cc(NC(=O)C(=O)c2c(C)n(Cc3ccc(Cl)cc3)c3ccc(C(=O)N(C)C)cc23)ccn1` [Compound 6, 1-(4-chlorobenzyl)-3-(2-(2-methoxypyridin-4-ylamino)-2-oxoacetyl)-N,N,2-trimethyl-1H-indole-5-carboxamide], 6.00 to 7.00. With `COc1ccc(Cn2c(C)c(C(=O)C(=O)Nc3ccnc(OC)c3)c3cc(OC)c(F)cc32)nc1` [Compound 32, 2-(6-fluoro-5-methoxy-1-((5-methoxypyridin-2-yl)methyl)-2-methyl-1H-indol-3-yl)-N-(2-methoxypyridin-4-yl)-2-oxoacetamide], the pIC50 was over 7.00.

Regarding `CNc1ccc2c(c1)c(C(=O)C(=O)Nc1ccnc(OC)c1)c(C)n2Cc1ccc(Cl)cc1` [Compound 9, 2-(1-(4-chlorobenzyl)-2-methyl-5-(methylamino)-1H-indol-3-yl)-N-(2-methoxypyridin-4-yl)-2-oxoacetamide], the pIC50 was over 7.00. On the same count and under the same terms, under `COc1cc(NC(=O)C(=O)c2c(C)n(Cc3ccc(Cl)cc3)c3ccc(C#N)cc23)ccn1` [Compound 15, 2-(1-(4-chlorobenzyl)-5-cyano-2-methyl-1H-indol-3-yl)-N-(2-methoxypyridin-4-yl)-2-oxoacetamide] stands over 7.00; under `COc1ccc2c(c1)c(C(=O)C(=O)Nc1ccnc(OC)c1)c(C)n2Cc1ncc(Cl)cc1OC` [Compound 100, 2-(1-((5-chloro-3-methoxypyridin-2-yl)methyl)-5-methoxy-2-methyl-1H-indol-3-yl)-N-(2-methoxypyridin-4-yl)-2-oxoacetamide], over 7.00; under `COc1cc(NC(=O)C(=O)c2c(C)n(Cc3ccc(Cl)cc3)c3ccc(OC(C)=O)cc23)ccn1` [Compound 1, 1-(4-chlorobenzyl)-3-(2-(2-methoxypyridin-4-ylamino)-2-oxoacetyl)-2-methyl-1H-indol-5-yl acetate], over 7.00. Consider `COc1cnc2c(c1)c(C(=O)C(=O)Nc1ccnc(OC)c1)c(C)n2Cc1ncc(Cl)cc1F` [Compound 34, 2-(1-((5-chloro-3-fluoropyridin-2-yl)methyl)-5-methoxy-2-methyl-1H-pyrrolo[2,3-b]pyridin-3-yl)-N-(2-methoxypyridin-4-yl)-2-oxoacetamide], for which the pIC50 was over 7.00. Still for that read-out and setting: as for `COc1cc(NC(=O)C(=O)c2c(C)n(Cc3ccc(Cl)cc3)c3ccc(CO)cc23)ccn1` [Compound 8, 2-(1-(4-chlorobenzyl)-5-(hydroxymethyl)-2-methyl-1H-indol-3-yl)-N-(2-methoxypyridin-4-yl)-2-oxoacetamide], the figure is over 7.00; as for `COc1cc(NC(=O)C(=O)c2c(C)n(Cc3ccc(Cl)cn3)c3ccc(N(C)C)cc23)ccn1` [Compound 66, 2-(1-((5-chloropyridin-2-yl)methyl)-5-(dimethylamino)-2-methyl-1H-indol-3-yl)-N-(2-methoxypyridin-4-yl)-2-oxoacetamide], over 7.00. For the molecule `COc1ccc(Cn2c(C)c(C(=O)C(=O)Nc3ccnc(OC)c3)c3cc(OC)c(C)cc32)nc1` [Compound 96, 2-(5-methoxy-1-((5-methoxypyridin-2-yl)methyl)-2,6-dimethyl-1H-indol-3-yl)-N-(2-methoxypyridin-4-yl)-2-oxoacetamide], the pIC50 was over 7.00. On to `COc1cc(NC(=O)C(=O)c2c(C)n(Cc3ccc(Cl)cc3)c3ccc(O)cc23)ccn1` [Compound 2, 2-(1-(4-chlorobenzyl)-5-hydroxy-2-methyl-1H-indol-3-yl)-N-(2-methoxypyridin-4-yl)-2-oxoacetamide], for which the pIC50 was over 7.00.

Turning to `COc1cc(NC(=O)C(=O)c2c(C)n(Cc3ccc(Cl)cc3)c3ccc([N+](=O)[O-])cc23)ccn1` [Compound 19, 2-(1-(4-chlorobenzyl)-2-methyl-5-nitro-1H-indol-3-yl)-N-(2-methoxypyridin-4-yl)-2-oxoacetamide], the pIC50 was over 7.00.

Turning to `COc1cc(NC(=O)C(=O)c2c(C)n(Cc3ccc(Cl)cc3)c3ccc(OC)c(OC)c23)ccn1` [Compound 56, 2-(1-(4-chlorobenzyl)-4,5-dimethoxy-2-methyl-1H-indol-3-yl)-N-(2-methoxypyridin-4-yl)-2-oxoacetamide], the pIC50 was 5.00 to 6.00.

In the case of `COCc1ccc2c(c1)c(C(=O)C(=O)Nc1ccnc(OC)c1)c(C)n2Cc1ccc(Cl)cc1` [Compound 11, 2-(1-(4-chlorobenzyl)-5-(methoxymethyl)-2-methyl-1H-indol-3-yl)-N-(2-methoxypyridin-4-yl)-2-oxoacetamide], the negative-log IC50 (pIC50) is over 7.00.

Usually pIC50 stands for −log10 of the IC50, conventionally taken in molar units.

These data come from patent publication US20150175599A1, “FAAH Inhibitors” (Ironwood Pharmaceuticals, Inc., priority 2010, published 2015).
